# Measurements: ChEMBL document CHEMBL1201862, “PubChem BioAssay data set” (2004)
# Where a name gives a salt, the structure may show the parent alone. Active and inactive are the calls of the source.
# Columns and labels:
# cells [1] = assay type: functional, cell-based; conditions: INS-1E
# [2] = IC50 of insulin release inhibition, rat insulinoma INS-1E line, 5 mM glucose, cell-based (AID 1117331); assay type: functional
# [3] = Luminescence Cell-Based Dose Confirmation HTS to Identify Activators of 5'UTR Stem-Loop Driven Alpha-Synuclein mRNA Translation in H4 Neuroglioblastoma Cells. [Related pubchem assays: 1829 (Project Summary), 1814 (Primary HTS)]; assay type: functional
# H4 = test: Luminescence Cell-Based Dose Response HTS to Identify Activators of 5'UTR Stem-Loop Driven Prion Protein mRNA Translation in H4 Neuroglioblastoma Cells. [Related pubchem assays: 1829 (Project Summary), 1814 (Primary HTS)]; assay type: functional; conditions: Homo sapiens
# [4] = target: T1, Zinc finger protein mex-5 (Caenorhabditis elegans, UniProt Q9XUB2); test: potency of MEX-5 RNA-binding blockers – biochemical, C. elegans, fluorescence polarization, dose response (AID 1960)
# T1 sequence (Q9XUB2 whole entry): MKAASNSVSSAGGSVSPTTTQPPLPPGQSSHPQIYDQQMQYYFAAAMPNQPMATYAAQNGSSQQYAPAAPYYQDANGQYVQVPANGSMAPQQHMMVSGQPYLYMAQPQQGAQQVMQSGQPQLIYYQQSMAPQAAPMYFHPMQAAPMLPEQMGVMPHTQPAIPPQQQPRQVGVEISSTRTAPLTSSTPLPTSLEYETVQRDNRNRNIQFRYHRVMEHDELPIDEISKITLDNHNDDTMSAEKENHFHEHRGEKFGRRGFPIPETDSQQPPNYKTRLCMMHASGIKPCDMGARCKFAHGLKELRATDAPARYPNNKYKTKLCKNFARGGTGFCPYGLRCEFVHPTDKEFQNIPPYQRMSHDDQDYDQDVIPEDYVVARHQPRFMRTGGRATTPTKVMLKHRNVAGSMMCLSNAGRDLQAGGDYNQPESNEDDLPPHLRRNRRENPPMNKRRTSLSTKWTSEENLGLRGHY
# [5] = Luminescence Cell-Based Dose Response HTS to Identify Activators of Luciferase Translation or Activity in H4 […] Cells. [Related pubchem assays: 1829 (Project Summary), 1814 (Primary HTS)]; assay type: functional
# Transthyretin = Transthyretin (Homo sapiens, UniProt P02766); test: Luminescence-based cell-based high throughput dose response assay to identify activators of Transthyretin (TTR) transcription.; assay type: functional
# [6] = target: T2, RNA-binding protein pos-1 (Caenorhabditis elegans, UniProt G5EF15); test: disruptors of C. elegans POS-1 RNA interaction – biochemical, fluorescence polarization, dose response (AID 1964);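 further: purified POS-1 fused to maltose binding protein made in E. coli; potency of compounds blocking POS-1 binding to fluorescent RNA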
# T2 sequence (G5EF15 whole entry): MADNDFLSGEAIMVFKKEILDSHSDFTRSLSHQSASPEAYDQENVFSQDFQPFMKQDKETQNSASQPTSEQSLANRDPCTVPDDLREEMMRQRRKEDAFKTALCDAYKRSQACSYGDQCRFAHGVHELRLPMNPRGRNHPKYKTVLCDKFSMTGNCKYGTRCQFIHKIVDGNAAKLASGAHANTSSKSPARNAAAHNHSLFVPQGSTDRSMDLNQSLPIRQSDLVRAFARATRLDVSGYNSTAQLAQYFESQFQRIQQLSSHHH
# [7] = viability loss in Vero cells – cytotoxicity control for Vif-APOBEC3G degradation inhibitor project, dose response (AID 1117358); assay type: functional; conditions: Vero
# [8] = Late stage results for the probe development effort to identify inhibitors of Plasmodium falciparum gametocytes: Luminescence-based cell-based high throughput dose response assay to identify inhibitors of viability of late stage Plasmodium falciparum gametocytes.; assay type: functional
# Cytochrome P450 3A4 = Cytochrome P450 3A4 (Homo sapiens, UniProt P08684);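 further: CYP3A4 tested as one member of a cytochrome P450 panel screen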
# Chain of Cytochrome P450 3A4 (P08684 whole entry): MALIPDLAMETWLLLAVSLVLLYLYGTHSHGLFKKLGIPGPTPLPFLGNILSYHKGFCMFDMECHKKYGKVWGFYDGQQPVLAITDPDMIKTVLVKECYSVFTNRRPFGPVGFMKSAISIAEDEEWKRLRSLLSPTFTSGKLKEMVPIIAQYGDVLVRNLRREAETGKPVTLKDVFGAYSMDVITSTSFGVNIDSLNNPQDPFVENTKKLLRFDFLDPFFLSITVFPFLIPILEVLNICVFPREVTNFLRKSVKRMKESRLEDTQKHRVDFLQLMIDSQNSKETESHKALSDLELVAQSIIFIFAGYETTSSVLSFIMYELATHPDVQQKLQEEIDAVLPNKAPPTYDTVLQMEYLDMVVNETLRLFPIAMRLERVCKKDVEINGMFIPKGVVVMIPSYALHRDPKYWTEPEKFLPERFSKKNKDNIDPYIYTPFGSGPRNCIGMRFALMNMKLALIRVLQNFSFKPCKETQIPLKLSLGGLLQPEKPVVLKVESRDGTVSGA
# Cytochrome P450 2D6 = Cytochrome P450 2D6 (Homo sapiens, UniProt P10635);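 further: CYP2D6 member of a cytochrome P450 panel assay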
# Chain of Cytochrome P450 2D6 (P10635 whole entry): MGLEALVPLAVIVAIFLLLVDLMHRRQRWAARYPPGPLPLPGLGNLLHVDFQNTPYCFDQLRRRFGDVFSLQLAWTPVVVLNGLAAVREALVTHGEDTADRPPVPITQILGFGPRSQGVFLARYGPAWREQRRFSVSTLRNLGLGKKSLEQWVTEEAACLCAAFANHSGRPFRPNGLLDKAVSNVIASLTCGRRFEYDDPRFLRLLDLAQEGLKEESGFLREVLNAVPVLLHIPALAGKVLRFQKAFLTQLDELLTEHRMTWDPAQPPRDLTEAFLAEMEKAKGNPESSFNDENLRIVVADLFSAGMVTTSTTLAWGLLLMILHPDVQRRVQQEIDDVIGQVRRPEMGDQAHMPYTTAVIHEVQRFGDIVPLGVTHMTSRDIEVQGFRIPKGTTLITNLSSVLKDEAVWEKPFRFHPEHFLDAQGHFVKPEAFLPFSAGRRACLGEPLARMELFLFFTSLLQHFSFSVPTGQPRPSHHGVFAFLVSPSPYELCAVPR
# cells [9] = test: cells
# [10] = target: T3, Oxysterols receptor LXR-beta (Homo sapiens, UniProt P55055); test: LXR agonists, Gal4 luciferase reporter, dose response, counter-screen for ssDAF-12 agonist project, cell-based, luminescence, HEK293, S. stercoralis campaign (AID 720737); assay type: functional; conditions: read-out: IC50 (the source's name)
# T3 sequence (P55055 whole entry): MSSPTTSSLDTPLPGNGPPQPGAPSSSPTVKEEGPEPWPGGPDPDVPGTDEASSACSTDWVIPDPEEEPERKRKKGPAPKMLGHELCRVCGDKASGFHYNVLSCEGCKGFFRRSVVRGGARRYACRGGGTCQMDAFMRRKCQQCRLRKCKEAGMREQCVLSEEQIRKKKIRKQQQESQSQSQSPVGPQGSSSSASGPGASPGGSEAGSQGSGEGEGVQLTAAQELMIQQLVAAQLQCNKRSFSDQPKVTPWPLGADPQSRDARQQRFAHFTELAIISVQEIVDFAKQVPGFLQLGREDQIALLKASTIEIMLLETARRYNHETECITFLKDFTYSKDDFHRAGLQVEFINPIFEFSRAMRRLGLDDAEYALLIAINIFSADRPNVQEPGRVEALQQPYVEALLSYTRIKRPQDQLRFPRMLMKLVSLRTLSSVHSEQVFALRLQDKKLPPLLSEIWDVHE
# [11] = Luminescence-based cell-based high throughput dose response assay to identify activators of the DAF-12 from the parasite S. stercoralis (ssDAF-12).; assay type: functional
# [12] = target: T3, Oxysterols receptor LXR-beta; assay type: functional, cell-based
# [13] = HIV-1 AD8 envelope cell-cell fusion blockers – cherry-pick, dose response (AID 652062); assay type: functional, cell-based;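 further: luciferase signal from cell-cell fusion driven by HIV-1 clade B AD8 Env; potency is for inhibitors of fusion seen as a drop in luminescence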
# [14] = blockers of HIV-1 envelope-mediated cell-cell fusion – cherry-pick, dose response (AID 652057); assay type: functional, cell-based
# [15] = inhibition of Env-driven cell fusion – HIV entry, plate reader, dry powder, dose response (AID 687023); assay type: functional, cell-based
# [16] = blockers of HIV-1 ZM109 envelope-driven cell-cell fusion – HeLa effector, CEM target cells, luciferase, cherry-pick, dose response (AID 652058); assay type: functional, cell-based;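 further: luciferase signal from HIV-1 Env mediated cell-cell fusion of effector and target cells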
smiles,measurement,setting,value
CN(C)CC[C@@H](c1ccc(Br)cc1)c1ccccn1 [DEXBROMPHENIRAMINE MALEATE],IC50,cells [1],6.37 µM (inactive)
same,IC50,[2],3.76 µM (active)
O=C/C(=C\Nc1ccccn1)c1nc2ccccc2o1,EC50,[3],> 120 µM (not active)
same,EC50,H4,32.7 µM (active)
same,EC50,[4],> 300 µM (not active)
same,EC50,[5],10.2 µM (active)
same,EC50,Transthyretin,> 167 µM (inactive)
same,EC50,[6],> 300 µM (not active)
Cc1onc(-c2ccccc2Cl)c1C(=O)N1CCN(c2cccc(Cl)c2)CC1,CC50,[7],> 40 µM (active)
O=C(Nc1nccs1)c1cn(-c2ccccc2)nc1-c1ccc(Cl)cc1,IC50,[8],> 37.2 µM (inactive)
Cc1ccccc1-c1cc(-c2ccccc2O)on1,AC50,Cytochrome P450 3A4,31.6 µM (inconclusive)
same,AC50,Cytochrome P450 2D6,22.4 µM (inconclusive)
same,EC50,cells [9],> 67.6 µM (inactive)
same,EC50,[10],> 67.6 µM (inactive)
same,IC50,[11],> 67.6 µM (inactive)
same,EC50,[12],> 67.6 µM (inactive)
Cc1noc(C)c1S(=O)(=O)N(C)C[C@@H]1Oc2ccc(NC(=O)Nc3ccccc3)cc2CC(=O)N([C@@H](C)CO)C[C@@H]1C,AC50,[13],36.9 µM (active)
same,AC50,[14],19.7 µM (active)
same,AC50,[15],14.2 µM (active)
same,AC50,[16],15.2 µM (active)
